Several values for one entry are separate records, joined by “and”; a condition that tells them apart may be missing. Equal values may be shown once.
How the values were obtained:
[1] = Metabolic stability, pooled human liver microsomes (phase I and II)
Protocol: Mouse, rat, and pooled human liver microsomes were purchased from a commercial source (Corning) and stored at -80 °C. NADPH generating system solutions A and B and UGT reaction mix solutions A and B (Corning) were kept at -20°C. The test compound and the reference compounds diclofenac (MW […]
microsomal stability assay was carried out based on the BD Biosciences Guidelines for Use (TF000017 Rev1.0) with minor adaptations. Metabolic stability of the compounds was studied through the CYP450 superfamily (phase I metabolism) by fortification with reduced nicotinamide adenine dinucleotide phosphate (NADPH) and through uridine glucuronosyl-transferase (UGT) enzymes (phase II metabolism) by fortification with uridine diphosphate glucuronic acid (UDPGA). For the CYP450 and other NADPH dependent enzymes, both compounds were incubated at 5 µM together with 0.5 mg mL-1 liver microsomes in potassium phosphate buffer in a reaction started by the addition of 1 mM NADPH […]
At these time points, 20 µL was withdrawn from the reaction mixture and 80 µL cold acetonitrile (ACN) containing the internal standard tolbutamide, was added to inactivate the enzymes and precipitate the proteins. The mixture was vortexed for 30 s and centrifuged at 4 °C for 5 min at 15,000 rpm. The supernatant was stored at -80°C until analysis. For the UGT enzymes, both compounds were incubated at 5 µM together with 0.5 mg mL-1 liver microsomes in a reaction started by the addition of 2 mM UDPGA cofactor. The corresponding loss of parent compound was determined using liquid chromatography (UPLC) (Waters AquityTM) coupled with tandem quadrupole mass spectrometry (MS²) (Waters XevoTM), equipped with an electrospray ionization (ESI) interface and operated in multiple reaction monitoring (MRM) mode. […]

[2] = tested on: T. b. brucei AnTAR1.1 PPYRE9; assay: Mouse model of stage 2 HAT (BLI, parasitaemia, SL-RNA qPCR); type: in vivo; conditions: for BLI of the head region, RLU data: individual animals
Protocol: […] Treatment was initiated at 21 dpi. […] Mice were injected i.p. with […] of D-luciferin and anaesthetised using isoflurane. The luminescent signal was acquired from both the dorsal and ventral side of the animals. […] Animals subjected to the different treatment schemes (from 4 wpi) were additionally imaged over a 5 min exposure time for enhanced sensitivity. […] Tissues were weighed and RNA was extracted using the RNeasy Plus Mini Kit (Qiagen) according to the manufacturer’s recommendations. […] A list of primers used is provided in the Supplementary Methods section of the Supplementary Information. BLI images from the IVIS Spectrum In Vivo Imaging System (Perkin Elmer) were analysed using LivingImage v4.3.1. SoftWoRx suite 2.0 for microscopy (image deconvolution), then processing using the Fiji software.

Q: Which results are given for `Nc1ncnc2c1ccn2[C@@H]1O[C@H](CO)C[C@H]1O` [Compound 9, 3’-deoxytubercidin]?
A: % analogue 9 remaining, EXP 1 / EXP 2 ([1]; microsomes, 0 min, 5 µM): 100%; % analogue 9 remaining, Mean ([1]; microsomes, 0 min, 5 µM): 100%; metabolic stability ([1]; s9, 0.5 h): metabolically stable; RLU data, individual mice ([2]; 6.25 mg/kg SID, 3 wpi): 1622000 RLU and 3182000 RLU and 2182000 RLU; RLU data, individual mice ([2]; 6.25 mg/kg SID, 4 wpi): 193100 RLU and 167700 RLU and 117800 RLU; RLU data, individual mice ([2]; 6.25 mg/kg SID, 5 wpi): 198100 RLU and 192400 RLU and 180700 RLU; RLU data, individual mice ([2]; 6.25 mg/kg SID, 6 wpi): 97950 RLU and 93770 RLU and 90330 RLU; RLU data, individual mice ([2]; 6.25 mg/kg SID, 7 wpi): 113500 RLU and 105600 RLU and 105900 RLU; RLU data, individual mice ([2]; 6.25 mg/kg SID, 8 wpi): 131900 RLU and 113000 RLU and 102800 RLU; RLU data, individual mice ([2]; 6.25 mg/kg SID, 9 wpi): 108500 RLU and 102400 RLU and 89250 RLU; RLU data, individual mice ([2]; 6.25 mg/kg SID, 11 wpi): 85510 RLU and 79310 RLU and 77130 RLU; RLU data, individual mice ([2]; 6.25 mg/kg SID, 12 wpi): 86540 RLU and 80590 RLU and 72940 RLU; RLU data, individual mice ([2]; 6.25 mg/kg SID, 14 wpi): 72880 RLU and 70430 RLU and 75490 RLU; RLU data, individual mice ([2]; 12.5 mg/kg SID, 3 wpi): 11680000 RLU and 7405000 RLU; RLU data, individual mice ([2]; 12.5 mg/kg SID, 4 wpi): 129800 RLU and 121500 RLU; RLU data, individual mice ([2]; 12.5 mg/kg SID, 5 wpi): 117000 RLU and 123200 RLU; RLU data, individual mice ([2]; 12.5 mg/kg SID, 6 wpi): 100200 RLU and 88860 RLU; RLU data, individual mice ([2]; 12.5 mg/kg SID, 7 wpi): 107000 RLU and 110100 RLU; RLU data, individual mice ([2]; 12.5 mg/kg SID, 8 wpi): 112000 RLU and 128000 RLU; RLU data, individual mice ([2]; 12.5 mg/kg SID, 9 wpi): 99900 RLU and 94080 RLU; RLU data, individual mice ([2]; 12.5 mg/kg SID, 11 wpi): 77540 RLU and 81340 RLU; RLU data, individual mice ([2]; 12.5 mg/kg SID, 12 wpi): 79330 RLU and 83380 RLU; RLU data, individual mice ([2]; 12.5 mg/kg SID, 14 wpi): 72090 RLU and 77840 RLU; RLU data, individual mice ([2]; 25 mg/kg BID, 3 wpi): 4672000 RLU and 30200000 RLU; RLU data, individual mice ([2]; 25 mg/kg BID, 4 wpi): 134400 RLU and 112900 RLU; RLU data, individual mice ([2]; 25 mg/kg BID, 5 wpi): 112900 RLU and 115900 RLU; RLU data, individual mice ([2]; 25 mg/kg BID, 6 wpi): 102800 RLU and 99010 RLU; RLU data, individual mice ([2]; 25 mg/kg BID, 7 wpi): 102400 RLU and 91660 RLU; RLU data, individual mice ([2]; 25 mg/kg BID, 8 wpi): 110100 RLU and 102600 RLU; RLU data, individual mice ([2]; 25 mg/kg BID, 9 wpi): 102800 RLU and 96280 RLU; RLU data, individual mice ([2]; 25 mg/kg BID, 11 wpi): 72280 RLU and 73020 RLU; RLU data, individual mice ([2]; 25 mg/kg BID, 12 wpi): 82420 RLU and 78930 RLU; RLU data, individual mice ([2]; 25 mg/kg BID, 14 wpi): 77680 RLU and 76600 RLU; RLU data, individual mice ([2]; 25 mg/kg SID, 3 wpi): 2495000 RLU and 617400 RLU and 13720000 RLU; RLU data, individual mice ([2]; 25 mg/kg SID, 4 wpi): 173900 RLU and 151500 RLU and 120200 RLU; RLU data, individual mice ([2]; 25 mg/kg SID, 5 wpi): 135900 RLU and 123400 RLU and 110100 RLU; RLU data, individual mice ([2]; 25 mg/kg SID, 6 wpi): 109500 RLU and 97640 RLU and 94120 RLU; RLU data, individual mice ([2]; 25 mg/kg SID, 7 wpi): 98810 RLU and 105800 RLU and 87010 RLU; RLU data, individual mice ([2]; 25 mg/kg SID, 8 wpi): 114800 RLU and 132100 RLU and 110100 RLU; RLU data, individual mice ([2]; 25 mg/kg SID, 9 wpi): 104700 RLU and 110500 RLU and 91280 RLU; RLU data, individual mice ([2]; 25 mg/kg SID, 11 wpi): 73650 RLU and 88470 RLU and 81640 RLU; RLU data, individual mice ([2]; 25 mg/kg SID, 12 wpi): 90290 RLU and 88590 RLU and 87820 RLU; RLU data, individual mice ([2]; 25 mg/kg SID, 14 wpi): 78620 RLU and 86010 RLU and 72810 RLU; BLI of the head region, RLU data ([2]; 3 wpi (start of treatment, 21 dpi)): 48700000 RLU and 33400000 RLU; BLI of the head region, RLU data ([2]; 4 wpi): 98400 RLU and 114000 RLU; BLI of the head region, RLU data ([2]; 5 wpi): 100000 RLU and 105000 RLU
